The text below walks through data of ChEMBL document CHEMBL1201862, “PubChem BioAssay data set” (2004).

The target of assay [1] is FAD-linked sulfhydryl oxidase ALR (Homo sapiens, UniProt P55789). Put plainly: ALR-catalysed DTT oxidation blockers – biochemical, H2O2 detection, luminescence, cherry-pick, dose response (AID 493248).
The target of assay [2] is T1, Zinc finger protein mex-5 (Caenorhabditis elegans, UniProt Q9XUB2).
T1 sequence (Q9XUB2 whole entry): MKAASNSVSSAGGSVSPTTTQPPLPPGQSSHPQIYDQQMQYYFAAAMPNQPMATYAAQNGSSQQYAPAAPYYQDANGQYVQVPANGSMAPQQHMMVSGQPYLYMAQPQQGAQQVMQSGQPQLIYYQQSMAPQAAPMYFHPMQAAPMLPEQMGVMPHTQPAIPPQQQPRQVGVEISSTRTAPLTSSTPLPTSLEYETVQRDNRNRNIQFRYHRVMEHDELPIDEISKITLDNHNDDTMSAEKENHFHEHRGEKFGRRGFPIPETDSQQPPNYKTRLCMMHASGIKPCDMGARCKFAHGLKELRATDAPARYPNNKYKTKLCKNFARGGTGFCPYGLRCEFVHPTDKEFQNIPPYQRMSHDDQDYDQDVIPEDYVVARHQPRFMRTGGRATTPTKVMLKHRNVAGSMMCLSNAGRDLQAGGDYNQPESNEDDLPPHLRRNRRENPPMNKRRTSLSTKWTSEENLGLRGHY
Kind of assay: potency of MEX-5 RNA-binding blockers – biochemical, C. elegans, fluorescence polarization, dose response (AID 1960). In general terms: Fluorescence polarisation rises when a labelled molecule tumbles more slowly, as on binding a larger partner.

For assay [3], the target named is T2, RNA-binding protein pos-1 (Caenorhabditis elegans, UniProt G5EF15).
T2 sequence (G5EF15 whole entry): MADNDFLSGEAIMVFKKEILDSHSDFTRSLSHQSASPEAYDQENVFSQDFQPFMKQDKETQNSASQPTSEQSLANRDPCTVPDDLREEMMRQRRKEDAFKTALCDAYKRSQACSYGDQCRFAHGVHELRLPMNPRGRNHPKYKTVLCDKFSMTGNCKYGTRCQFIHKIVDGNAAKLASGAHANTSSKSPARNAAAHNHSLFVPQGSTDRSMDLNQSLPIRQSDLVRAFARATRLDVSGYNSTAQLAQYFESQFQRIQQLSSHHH
Kind of assay: disruptors of C. elegans POS-1 RNA interaction – biochemical, fluorescence polarization, dose response (AID 1964).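 Further: purified POS-1 fused to maltose binding protein made in E. coli; potency of compounds blocking POS-1 binding to fluorescent RNA.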

The nature of assay [4]: Luminescence Cell-Based Dose Confirmation HTS to Identify Activators of 5'UTR Stem-Loop Driven Alpha-Synuclein mRNA Translation in H4 Neuroglioblastoma Cells. [Related pubchem assays: 1829 (Project Summary), 1814 (Primary HTS)]. The format is functional.
Assay [5] in a line: microbe, parasite or virus in culture. Format: functional. The conditions noted are these: Mycobacterium tuberculosis.
Assay [6] in a line: Luminescence Cell-Based Dose Response HTS to Identify Activators of Luciferase Translation or Activity in H4 […] Cells. [Related pubchem assays: 1829 (Project Summary), 1814 (Primary HTS)]. Format: functional.
A further assay has as its system H4. Put plainly: Luminescence Cell-Based Dose Response HTS to Identify Activators of 5'UTR Stem-Loop Driven Prion Protein mRNA Translation in H4 Neuroglioblastoma Cells. [Related pubchem assays: 1829 (Project Summary), 1814 (Primary HTS)]. Format: functional. The conditions noted are these: Homo sapiens.
Another assay in a line: cells. The format is functional.
A short description of assay [7]: viability of uninfected HEp-2 cells – cell-based, HTS, cytotoxicity control for RSV inhibitor project, dose response (AID 2410). Format: functional. The conditions noted are these: human respiratory syncytial virus.
The nature of assay [8]: Trypanosoma cruzi growth suppression in host cells – NIH3T3 host cells, beta-gal luminescence, confirmation (AID 2044).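 Further: intracellular parasites grown in NIH/3T3 mouse fibroblasts as host cells; luminescent beta-galactosidase reporter signal from transgenic T. cruzi replicating inside host cells; inhibitors lower the luminescence signal.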 Format: functional, cell-based.
Assay [9] is described as follows: NIH3T3 cell viability loss – ATP luminescence, mouse fibroblasts, counter-screen, dose response (AID 2010).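 Further: cells exposed to compound for about 90 hours before reading.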 Format: functional, cell-based.
Assay [10] has as its target T3, Polyadenylate-binding protein 1 (Homo sapiens, UniProt P11940). Put plainly: MLLE domain peptide-binding blockers, IC50 – biochemical, fluorescence polarization, FITC-PAM2 peptide, dose response (AID 602259). The format is functional. The conditions noted are these: read-out: IC50_Mean.
The target of assay [11] is T3, Polyadenylate-binding protein 1. Kind of assay: MLLE binding blockers, Cy5 peptide tracer – biochemical, fluorescence polarization, Cy5-PAM2 peptide, secondary, miRNA deadenylation inhibitor project, dose response (AID 602260). The format is functional. The conditions noted are these: read-out: IC50_Mean.

Active and inactive are the calls of the source. For most assays here, no stated cut-off is given here; in the data, actives have a measured EC50 and inactives only a lower limit.

Chain of FAD-linked sulfhydryl oxidase ALR (P55789 whole entry): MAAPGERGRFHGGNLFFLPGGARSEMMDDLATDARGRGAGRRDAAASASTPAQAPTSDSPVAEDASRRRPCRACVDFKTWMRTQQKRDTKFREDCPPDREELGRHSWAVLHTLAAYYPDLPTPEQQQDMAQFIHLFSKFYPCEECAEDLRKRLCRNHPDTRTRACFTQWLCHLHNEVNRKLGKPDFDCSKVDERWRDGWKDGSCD
T3 sequence (P11940 whole entry, the tested form may be a part): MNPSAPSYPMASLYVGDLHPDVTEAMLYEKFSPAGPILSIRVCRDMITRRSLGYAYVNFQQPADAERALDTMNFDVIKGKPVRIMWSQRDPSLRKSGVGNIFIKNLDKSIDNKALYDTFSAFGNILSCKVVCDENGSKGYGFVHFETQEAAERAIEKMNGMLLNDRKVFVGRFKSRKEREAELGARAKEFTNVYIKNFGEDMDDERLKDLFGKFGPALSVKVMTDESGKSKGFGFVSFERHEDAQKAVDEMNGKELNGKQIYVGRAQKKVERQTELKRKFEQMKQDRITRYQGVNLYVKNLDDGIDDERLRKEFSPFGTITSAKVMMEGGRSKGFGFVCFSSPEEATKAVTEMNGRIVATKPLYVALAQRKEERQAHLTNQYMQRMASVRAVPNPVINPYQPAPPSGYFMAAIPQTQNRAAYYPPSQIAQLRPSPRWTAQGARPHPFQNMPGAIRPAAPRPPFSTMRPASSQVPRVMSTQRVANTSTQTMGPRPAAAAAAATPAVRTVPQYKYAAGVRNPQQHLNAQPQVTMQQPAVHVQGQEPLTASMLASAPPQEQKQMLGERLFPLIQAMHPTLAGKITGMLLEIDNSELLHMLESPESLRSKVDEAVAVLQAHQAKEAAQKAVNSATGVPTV

On to `COc1ccc(CCSc2nnc(C3CCCCC3)n2N)cc1`, for which the half-maximal activity concentration (AC50) in [1] is 2.81 µM (active).
Same read-out and setting: to `CCc1cc(-c2nnc(S)n2-c2cccc(C)c2)cs1` belongs 3.65 µM (active).
For `COC(=O)C1CSc2[nH]c(=O)sc2C1c1ccc(OC)c(OC)c1` (stereo not given), the EC50 in [2] and in [3] was > 300 µM (not active) in each case.
Take `COc1c(/C=C2/C(=O)NC(=O)N(C)C2=O)c(CCN(C)C(=O)c2ccccc2)cc2c1OCO2`: the EC50 in assay [2] and in assay [3] was > 300 µM (not active) throughout.
In the case of `CN1CCN(Cn2cc(/C=C/C(=O)c3ccccc3)c3ccccc32)CC1`, the 50% effective concentration (EC50) is 0.233 µM (active) in [4], 0.148 µM (active) in assay [6] and 18.9 µM (active) in the assay with H4. Besides, the CC50 in [5] is > 40 µM (active).
In the case of `Cc1cc(C)n(C(=O)c2ccc([N+](=O)[O-])cc2[N+](=O)[O-])n1`, in “cells”, the IC50 is 43.6 µM (active).
With `CN1C(=O)C(=Cc2cn(CC(=O)N3CCCC3)c3ccccc23)C(=O)N(C)C1=O`, the EC50 in [2] and in assay [3] was > 300 µM (not active) each time.
Consider `O=C(Nc1cccc(-c2cn3ccccc3n2)c1)c1ccccc1`, for which the AC50 in [1] is 2.89 µM (active).
Still for that read-out and setting: to `Sc1nnc(-c2ccc(Cl)cc2)n1-c1ccc(Cl)cc1` belongs 4.74 µM (active).
For `CCCCCc1ccc(S(=O)(=O)NCCc2ccncc2)cc1`, in assay [5], the CC50 is 12.1 µM (active).
Take `O=C(O)CCc1ccc(-c2ccccc2)n1-c1ccc(C(=O)O)cc1`: the EC50 in assay [2] and in [3] was > 300 µM (not active) each time.
In the case of `COc1ccc(CNC(=O)c2cc3cccc(O)c3oc2=N)cc1`, the IC50 in the assay “cells” was 47.8 µM (active).
For `COc1cccc(NC(=O)c2ccc(Cn3cc([N+](=O)[O-])cn3)o2)c1`, the IC50 in the assay “cells” was 18.5 µM (active).
With `CCN(CC)C(=O)Cn1cc(C(=O)C(=O)N2CCc3ccccc32)c2ccccc21`, the EC50 in [2] and in assay [3] was > 300 µM (not active) throughout.
For `CC(C)c1nnc(NC(=O)c2cc3cc(Br)ccc3oc2=O)s1`, the IC50 in “cells” is 0.66 µM (active).
Consider `Nc1cc(C(=O)O)ccc1Nc1ccc(F)c(F)c1`, for which the concentration at half-maximal activity (AC50) in assay [1] was 0.345 µM (active).
For the compound `CCN(CC)CCN(Cc1cc2ccc(C)c(C)c2nc1O)C(S)=NCc1ccco1`, the EC50 in assay [2] and in [3] was > 300 µM (not active) throughout. In addition, the CC50 in assay [7] was > 50 µM (active).
With `O=C(Oc1ccccc1)c1cccc(COC(=O)c2cnccn2)c1`, the IC50 in the assay “cells” was 6.99 µM (active).
As for `CC1(C)Nc2ccccc2N(Cc2ccc([N+](=O)[O-])cc2)C1=O`, the AC50 in [1] was 3.92 µM (active).
Consider `O=C(c1cnn2c(C(F)F)cc(-c3ccccc3)nc12)N1CCc2ccccc2C1`, for which the CC50 in assay [5] is > 40 µM (active).
Take `O=C(Nc1cc(Oc2ccccc2)cc([N+](=O)[O-])c1)C12CC3CC(C1)CC(n1cnc(Cl)n1)(C3)C2`: the figures for the EC50 in assay [8] and in [9] were 1.51 µM (active) and > 60 µM (not active), respectively. Also, the CC50 in [5] was > 40 µM (active).
As to `COc1c(O)cccc1[C@H](O)C1CCN(CCc2ccc(F)cc2)CC1`, the IC50 was 36.9 µM (inactive) in assay [10] and > 66 µM (inactive) in [11]. Also, the values for the half-maximal effective concentration (EC50) in [2] and in assay [3] were 13.7 µM (active) and 14.4 µM (active), respectively.
For the compound `Oc1ccccc1CN1CCCC(N2CCN(c3cccc(C(F)(F)F)c3)CC2)C1` (stereo not given), the IC50 in “cells” was 22.9 µM (active).
`COc1cc(/C=N/Nc2nc(O)nnc2C)cc([N+](=O)[O-])c1O`: the half-maximal effective concentration (EC50) was 10.8 µM (inconclusive) in assay [2] and 7.98 µM (active) in assay [3].

Usually AC50 stands for the concentration giving half of the maximal activity seen. One may read the EC50 as the concentration giving half of the maximal effect.
